What was measured:
EGFR L858R = EGFR L858R (Homo sapiens (Human), UniProt P00533, L858R); assay: Biochemical EGFR inhibition assay, EGFR L858R; conditions: Caliper mobility shift; 1.0 mM ATP or ATP Km; read-out: Enz EGFR_L858R IC50
EGFR (d746-750) = EGFR (d746-750) (Homo sapiens (Human), UniProt P00533, DEL746-750); assay: Biochemical EGFR inhibition assay, EGFR (d746-750); conditions: Caliper mobility shift; 1.0 mM ATP or ATP Km; read-out: Enz EGFR_Exon19-del746-750 IC50
[1] = target: pEGFR (Tyr1068) in PC-9 cells (Ex19Del) (Homo sapiens (Human), UniProt P00533, DEL746-750); assay: PC-9 pEGFR AlphaLISA assay; assay type: cell-based; conditions: 4 hours incubation, p-EGFR (Tyr1068) AlphaLISA, read-out: Ext pEGFR_PC-9 Ex19Del IC50
Procedure, shortened: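 Phospho-EGFR (Tyr1068) was quantified by AlphaLISA SureFire Ultra in lysates of PC-9 cells exposed for 4 h to compound (4-fold, 10-point dilutions).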

EGFR L858R, sequence (P00533 25-1210 L858R): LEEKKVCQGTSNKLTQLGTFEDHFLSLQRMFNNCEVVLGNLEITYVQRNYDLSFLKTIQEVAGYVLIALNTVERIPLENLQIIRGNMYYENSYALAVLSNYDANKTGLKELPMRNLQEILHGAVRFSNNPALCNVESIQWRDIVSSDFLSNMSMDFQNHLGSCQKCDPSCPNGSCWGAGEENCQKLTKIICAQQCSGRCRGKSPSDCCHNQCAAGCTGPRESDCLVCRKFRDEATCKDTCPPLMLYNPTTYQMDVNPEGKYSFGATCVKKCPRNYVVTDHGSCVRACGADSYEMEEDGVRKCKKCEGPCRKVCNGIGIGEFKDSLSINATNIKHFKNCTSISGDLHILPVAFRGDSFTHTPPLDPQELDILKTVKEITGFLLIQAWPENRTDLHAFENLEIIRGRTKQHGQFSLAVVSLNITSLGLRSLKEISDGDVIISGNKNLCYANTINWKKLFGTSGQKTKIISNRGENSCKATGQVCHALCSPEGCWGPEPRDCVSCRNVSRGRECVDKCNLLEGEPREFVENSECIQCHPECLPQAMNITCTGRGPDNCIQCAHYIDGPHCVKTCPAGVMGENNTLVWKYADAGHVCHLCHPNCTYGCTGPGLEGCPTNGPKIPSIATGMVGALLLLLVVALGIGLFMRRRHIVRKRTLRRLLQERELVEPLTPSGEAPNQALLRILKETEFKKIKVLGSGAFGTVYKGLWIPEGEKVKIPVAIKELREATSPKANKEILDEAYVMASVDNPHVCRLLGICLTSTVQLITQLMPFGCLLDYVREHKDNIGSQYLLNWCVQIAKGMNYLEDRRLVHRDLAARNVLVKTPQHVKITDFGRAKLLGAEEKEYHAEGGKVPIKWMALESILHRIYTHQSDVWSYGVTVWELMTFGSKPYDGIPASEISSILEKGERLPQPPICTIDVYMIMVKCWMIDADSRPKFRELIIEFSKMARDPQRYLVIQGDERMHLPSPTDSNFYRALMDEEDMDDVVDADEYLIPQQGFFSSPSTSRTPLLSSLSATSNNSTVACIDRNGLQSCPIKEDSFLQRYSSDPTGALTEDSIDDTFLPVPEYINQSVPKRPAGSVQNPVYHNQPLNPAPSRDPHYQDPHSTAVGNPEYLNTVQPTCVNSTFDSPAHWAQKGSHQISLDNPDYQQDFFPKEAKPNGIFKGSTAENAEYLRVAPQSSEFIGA
EGFR (d746-750), sequence (P00533 other isoform, or with tags, fused parts or gaps del 1-694/del 746-750 limits assumed): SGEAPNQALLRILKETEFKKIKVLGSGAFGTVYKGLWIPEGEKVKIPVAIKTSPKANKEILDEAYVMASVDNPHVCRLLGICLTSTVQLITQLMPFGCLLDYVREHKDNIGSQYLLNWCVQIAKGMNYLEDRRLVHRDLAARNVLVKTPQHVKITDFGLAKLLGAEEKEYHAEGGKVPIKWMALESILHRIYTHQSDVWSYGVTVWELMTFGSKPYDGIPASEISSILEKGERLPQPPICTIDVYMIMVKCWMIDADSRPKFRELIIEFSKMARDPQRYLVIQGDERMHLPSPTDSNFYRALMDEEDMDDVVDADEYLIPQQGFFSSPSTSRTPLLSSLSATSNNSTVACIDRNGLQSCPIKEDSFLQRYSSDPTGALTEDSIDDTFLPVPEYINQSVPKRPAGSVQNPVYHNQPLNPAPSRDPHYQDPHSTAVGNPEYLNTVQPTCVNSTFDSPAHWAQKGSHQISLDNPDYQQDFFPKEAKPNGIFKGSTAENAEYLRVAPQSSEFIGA
pEGFR (Tyr1068) in PC-9 cells (Ex19Del), sequence (P00533 other isoform, or with tags, fused parts or gaps del 746-750): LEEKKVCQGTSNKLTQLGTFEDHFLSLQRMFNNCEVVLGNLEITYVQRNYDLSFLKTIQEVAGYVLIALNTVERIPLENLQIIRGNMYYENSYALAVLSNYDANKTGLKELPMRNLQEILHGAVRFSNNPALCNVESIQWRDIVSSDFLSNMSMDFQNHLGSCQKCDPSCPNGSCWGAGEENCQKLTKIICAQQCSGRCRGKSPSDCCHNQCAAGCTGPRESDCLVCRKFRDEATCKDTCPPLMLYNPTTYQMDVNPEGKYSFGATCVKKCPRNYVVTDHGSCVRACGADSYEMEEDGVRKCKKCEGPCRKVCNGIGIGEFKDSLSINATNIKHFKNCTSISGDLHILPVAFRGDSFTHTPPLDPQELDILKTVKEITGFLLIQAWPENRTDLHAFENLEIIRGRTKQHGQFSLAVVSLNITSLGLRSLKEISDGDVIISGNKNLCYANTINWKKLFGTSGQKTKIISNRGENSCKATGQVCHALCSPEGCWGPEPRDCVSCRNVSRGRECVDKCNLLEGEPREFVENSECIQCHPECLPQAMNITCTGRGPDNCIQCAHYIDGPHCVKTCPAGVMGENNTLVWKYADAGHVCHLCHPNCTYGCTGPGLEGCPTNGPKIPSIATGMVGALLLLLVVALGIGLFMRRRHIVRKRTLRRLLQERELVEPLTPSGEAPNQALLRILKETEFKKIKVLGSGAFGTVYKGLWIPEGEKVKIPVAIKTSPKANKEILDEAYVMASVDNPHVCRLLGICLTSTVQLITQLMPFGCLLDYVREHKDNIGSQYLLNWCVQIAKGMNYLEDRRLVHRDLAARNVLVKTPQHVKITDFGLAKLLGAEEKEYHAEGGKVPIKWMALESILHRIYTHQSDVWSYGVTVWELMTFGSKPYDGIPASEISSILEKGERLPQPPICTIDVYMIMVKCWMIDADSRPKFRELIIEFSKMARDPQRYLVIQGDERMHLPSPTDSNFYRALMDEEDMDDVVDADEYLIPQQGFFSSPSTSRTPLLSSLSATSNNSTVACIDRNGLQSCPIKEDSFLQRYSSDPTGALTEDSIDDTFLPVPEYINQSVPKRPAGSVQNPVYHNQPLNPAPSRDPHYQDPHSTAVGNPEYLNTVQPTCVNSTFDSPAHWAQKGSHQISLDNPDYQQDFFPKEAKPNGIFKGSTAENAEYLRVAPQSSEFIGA

Question: How did the IC50 (EGFR L858R) turn out when `COc1cc2ncnc(-c3cn(C)nc3-c3ccccc3)c2cc1NC(=O)N1C[C@H](C)N(C)C[C@@H]1C` [Example 178, (2S,5S)—N-(7-methoxy-4-(1-methyl-3-phenyl-1H-pyrazol-4-yl)quinazolin-6-yl)-2,4,5-trimethylpiperazine-1-carboxamide] was run?
Answer: 6.2 nM

Question: And the IC50 (EGFR (d746-750))?
Answer: 3.3 nM

Question: And the IC50 [1]?
Answer: 5.4 nM

Question: What does the source list for `COc1cc2ncnc(-c3cn(C)nc3-c3ccccc3)c2nc1NC(=O)[C@@]12C[C@@H]1CN(C)C2` (single isomer, unassigned) [Example 392, (1S,5S)—N-(7-methoxy-4-(1-methyl-3-phenyl-1H-pyrazol-4-yl)pyrido[3,2-d]pyrimidin-6-yl)-3-methyl-3-azabicyclo[3.1.0]hexane-1-carboxamide or (1R,5R)—N-(7-methoxy-4-(1-methyl-3-phenyl-1H-pyrazol-4-yl)pyrido[3,2-d]pyrimidin-6-yl)-3-methyl-3-azabicyclo[3.1.0]hexane-1-carboxamide]?
Answer: IC50 (EGFR L858R): 6.1 nM; IC50 (EGFR (d746-750)): 2.2 nM; IC50 [1]: 5.9 nM

Question: Which IC50 (EGFR L858R) does the source give for `COc1cc2ncnc(-c3cn(C)nc3-c3ccccc3)c2cc1O[C@H]1CN(C)C[C@@H]1F` [Example 6, 6-(((3S,4S)-4-fluoro-1-methylpyrrolidin-3-yl)oxy)-7-methoxy-4-(1-methyl-3-phenyl-1H-pyrazol-4-yl)quinazoline] here?
Answer: 2.3 nM

Question: What about the IC50 (EGFR (d746-750)) of the same molecule?
Answer: 1.7 nM

Question: What about the IC50 [1] of the same molecule?
Answer: 3.5 nM

Question: How did the IC50 (EGFR L858R) turn out when `COc1cc2ncnc(-c3cn(CC(F)F)nc3-c3ccccc3)c2cc1N1CCOCC1` [Example 168, 4-(4-(1-(2,2-difluoroethyl)-3-phenyl-1H-pyrazol-4-yl)-7-methoxyquinazolin-6-yl)morpholine] was run?
Answer: 1.5 nM

Question: What about the IC50 (EGFR (d746-750)) of the same molecule?
Answer: 1 nM

Question: What about the IC50 [1] of the same molecule?
Answer: 0.8 nM

Question: With `COc1cc2ncnc(-c3cn(C)nc3-c3ccccc3)c2cc1NC(=O)C(C)F` (stereo not drawn) [Example 221, 2-fluoro-N-(7-methoxy-4-(1-methyl-3-phenyl-1H-pyrazol-4-yl)quinazolin-6-yl)propanamide] as the molecule, how does the IC50 (EGFR L858R) read?
Answer: 1.8 nM

Question: What about the IC50 (EGFR (d746-750)) of the same molecule?
Answer: 1 nM

Question: And the IC50 [1]?
Answer: 2.3 nM

Question: With `COc1cc2ncnc(-c3cn(C)nc3-c3ccccc3)c2nc1NC(=O)[C@@]1(C(F)(F)F)CCN(C)C1` (single isomer, unassigned) [Example 394, (R)—N-(7-methoxy-4-(1-methyl-3-phenyl-1H-pyrazol-4-yl)pyrido[3,2-d]pyrimidin-6-yl)-1-methyl-3-(trifluoromethyl) pyrrolidine-3-carboxamide or (S)—N-(7-methoxy-4-(1-methyl-3-phenyl-1H-pyrazol-4-yl)pyrido[3,2-d]pyrimidin-6-yl)-1-methyl-3-(trifluoromethyl) pyrrolidine-3-carboxamide] as the molecule, how does the IC50 (EGFR L858R) read?
Answer: 6.9 nM

Question: And the IC50 (EGFR (d746-750))?
Answer: 2.7 nM

Question: And the IC50 [1]?
Answer: 9.3 nM

Question: With `COc1cc2ncnc(-c3cn(C)nc3-c3ccccc3F)c2cc1NC(=O)[C@]12COC[C@H]1C2` (single isomer, unassigned) [Example 241, (1S,5S)—N-(4-(3-(2-fluorophenyl)-1-methyl-1H-pyrazol-4-yl)-7-methoxyquinazolin-6-yl)-3-oxabicyclo[3.1.0]hexane-1-carboxamide or (1R,5R)—N-(4-(3-(2-fluorophenyl)-1-methyl-1H-pyrazol-4-yl)-7-methoxyquinazolin-6-yl)-3-oxabicyclo[3.1.0]hexane-1-carboxamide] as the molecule, how does the IC50 (EGFR L858R) read?
Answer: 3 nM

Question: And the IC50 (EGFR (d746-750))?
Answer: 1.5 nM

Question: And the IC50 [1]?
Answer: 2 nM

Question: Which IC50 (EGFR L858R) does the source give for `COc1cc2ncnc(-c3cn(C)nc3-c3ccccc3)c2cc1NC(=O)c1ncccn1` [Example 192, N-(7-methoxy-4-(1-methyl-3-phenyl-1H-pyrazol-4-yl)quinazolin-6-yl)pyrimidine-2-carboxamide] here?
Answer: 1.1 nM

Question: What about the IC50 (EGFR (d746-750)) of the same molecule?
Answer: 0.7 nM

Question: What about the IC50 [1] of the same molecule?
Answer: 1.6 nM

Question: With `COc1cc2ncnc(-c3cn(C)nc3-c3ccccc3)c2cc1NC(=O)c1scnc1C` [Example 207, N-(7-methoxy-4-(1-methyl-3-phenyl-1H-pyrazol-4-yl)quinazolin-6-yl)-4-methylthiazole-5-carboxamide] as the molecule, how does the IC50 (EGFR L858R) read?
Answer: 1.4 nM

Question: What about the IC50 (EGFR (d746-750)) of the same molecule?
Answer: 0.8 nM

Question: What about the IC50 [1] of the same molecule?
Answer: 1 nM

Question: With `COc1cc2ncnc(-c3cn(C)nc3-c3ccccc3)c2cc1NC(=O)c1ccncc1C` [Example 191, N-(7-methoxy-4-(1-methyl-3-phenyl-1H-pyrazol-4-yl)quinazolin-6-yl)-3-methylisonicotinamide] as the molecule, how does the IC50 (EGFR L858R) read?
Answer: 3.8 nM

Question: What about the IC50 (EGFR (d746-750)) of the same molecule?
Answer: 1.8 nM

Question: And the IC50 [1]?
Answer: 6.4 nM

Question: What does the source list for `COc1cc2ncnc(-c3cn(C)nc3-c3ccccc3F)c2nc1NC(=O)[C@]12C[C@H]1CN(C)C2` [Example 374, (1R,5R)—N-(4-(3-(2-fluorophenyl)-1-methyl-1H-pyrazol-4-yl)-7-methoxypyrido[3,2-d]pyrimidin-6-yl)-3-methyl-3-azabicyclo[3.1.0]hexane-1-carboxamide]?
Answer: IC50 (EGFR L858R): 4.3 nM; IC50 (EGFR (d746-750)): 1.4 nM; IC50 [1]: 3.6 nM

Question: What does the source list for `COc1cc2ncnc(-c3cn(C)nc3-c3ccccc3)c2cc1OC(=O)N1CCN(C)[C@H](C)[C@@H]1C` [Example 98, 7-methoxy-4-(1-methyl-3-phenyl-1H-pyrazol-4-yl)quinazolin-6-yl (2S,3R)-2,3,4-trimethylpiperazine-1-carboxylate]?
Answer: IC50 (EGFR L858R): 6.8 nM; IC50 (EGFR (d746-750)): 3.4 nM; IC50 [1]: 9.3 nM

Question: Which IC50 (EGFR L858R) does the source give for `COc1cc2ncnc(-c3cn(C)nc3-c3ccccc3)c2cc1NC(=O)[C@H]1C[C@@H]1C(F)(F)F` [Example 287, (1S,2S)—N-(7-methoxy-4-(1-methyl-3-phenyl-1H-pyrazol-4-yl)quinazolin-6-yl)-2-(trifluoromethyl)cyclopropane-1-carboxamide] here?
Answer: 4.5 nM

Question: And the IC50 (EGFR (d746-750))?
Answer: 1.2 nM

Question: And the IC50 [1]?
Answer: 13 nM

Question: `COc1cc2ncnc(-c3cn(C)nc3-c3ccccc3)c2cc1O[C@@H](C)C1COC1` [Example 22, (S)-7-methoxy-4-(1-methyl-3-phenyl-1H-pyrazol-4-yl)-6-(1-(oxetan-3-yl)ethoxy)quinazoline] was tested. Which IC50 (EGFR L858R) did it give?
Answer: 1.7 nM

Question: What about the IC50 (EGFR (d746-750)) of the same molecule?
Answer: 1.2 nM

Question: And the IC50 [1]?
Answer: 4.8 nM

Question: With `CCOc1cc2ncnc(-c3cn(C)nc3-c3ccccc3)c2nc1NC(=O)[C@@]12C[C@@H]1CN(C)C2` (single isomer, unassigned) [Example 377, (1S,5S)—N-(7-ethoxy-4-(1-methyl-3-phenyl-1H-pyrazol-4-yl)pyrido[3,2-d]pyrimidin-6-yl)-3-methyl-3-azabicyclo[3.1.0]hexane-1-carboxamide or (1R,5R)—N-(7-ethoxy-4-(1-methyl-3-phenyl-1H-pyrazol-4-yl)pyrido[3,2-d]pyrimidin-6-yl)-3-methyl-3-azabicyclo[3.1.0]hexane-1-carboxamide] as the molecule, how does the IC50 (EGFR L858R) read?
Answer: 2.2 nM

Question: What about the IC50 (EGFR (d746-750)) of the same molecule?
Answer: 1.3 nM

Question: What about the IC50 [1] of the same molecule?
Answer: 2.8 nM

Question: What does the source list for `CCC(=O)Nc1cc2c(-c3cnn(CC(F)F)c3-c3ccccc3)ncnc2cc1OC` [Example 500]?
Answer: IC50 (EGFR L858R): 2.9 nM; IC50 (EGFR (d746-750)): 7 nM; IC50 [1]: 55.7 nM

Question: Which IC50 (EGFR L858R) does the source give for `COc1cc2ncnc(-c3cn(C)nc3-c3ccccc3)c2nc1OC(=O)N1CCOC[C@H]1C` [Example 56, 7-methoxy-4-(1-methyl-3-phenyl-1H-pyrazol-4-yl)pyrido[3,2-d]pyrimidin-6-yl (R)-3-methylmorpholine-4-carboxylate] here?
Answer: 3.4 nM

Question: And the IC50 (EGFR (d746-750))?
Answer: 2.1 nM

Question: What about the IC50 [1] of the same molecule?
Answer: 3 nM

Question: Which results are given for `Cn1cc(-c2ncnc3cc(O)c(NC(=O)C4(C(F)(F)F)CC4)nc23)c(-c2ccccc2)n1` [Example 464, N-[7-hydroxy-4-(1-methyl-3-phenyl-1H-pyrazol-4-yl)pyrido[3,2-d]pyrimidin-6-yl]-1-(trifluoromethyl)cyclopropane-1-carboxamide]?
Answer: IC50 (EGFR L858R): 0.9 nM; IC50 (EGFR (d746-750)): 0.3 nM; IC50 [1]: 1.4 nM

Question: What does the source list for `COc1cc2ncnc(-c3cn(C)nc3-c3ccccc3)c2cc1NC(=O)[C@]12COC[C@H]1C2` (single isomer, unassigned) [Example 260, (1S,5S)—N-(7-methoxy-4-(1-methyl-3-phenyl-1H-pyrazol-4-yl)quinazolin-6-yl)-5-methyl-3-oxabicyclo[3.1.0]hexane-1-carboxamide or (1R,5R)—N-(7-methoxy-4-(1-methyl-3-phenyl-1H-pyrazol-4-yl)quinazolin-6-yl)-3-oxabicyclo[3.1.0]hexane-1-carboxamide]?
Answer: IC50 (EGFR L858R): 6.8 nM; IC50 (EGFR (d746-750)): 1.2 nM; IC50 [1]: 3.2 nM

Question: With `COc1cc2ncnc(-c3cn(C)nc3-c3ccccc3)c2nc1O[C@@H](C)c1cocn1` [Example 39, (S)-4-(1-((7-methoxy-4-(1-methyl-3-phenyl-1H-pyrazol-4-yl)pyrido[3,2-d]pyrimidin-6-yl)oxy)ethyl) oxazole] as the molecule, how does the IC50 (EGFR L858R) read?
Answer: 3.5 nM

Question: And the IC50 (EGFR (d746-750))?
Answer: 2.1 nM

Question: What about the IC50 [1] of the same molecule?
Answer: 5.3 nM

Question: What does the source list for `CCOc1cc2ncnc(-c3cn(C)nc3-c3ccccc3)c2cc1OC1CCOCC1` [Example 24, 7-ethoxy-4-(1-methyl-3-phenyl-1H-pyrazol-4-yl)-6-((tetrahydro-2H-pyran-4-yl)oxy)quinazoline]?
Answer: IC50 (EGFR L858R): 1.3 nM; IC50 (EGFR (d746-750)): 0.8 nM; IC50 [1]: 2.6 nM

Question: With `COc1cc2ncnc(-c3cn(C)nc3-c3ccccc3)c2nc1NC(=O)c1cnc(C2CC2)s1` [Example 318, 2-cyclopropyl-N-(7-methoxy-4-(1-methyl-3-phenyl-1H-pyrazol-4-yl)pyrido[3,2-d]pyrimidin-6-yl)thiazole-5-carboxamide] as the molecule, how does the IC50 (EGFR L858R) read?
Answer: 0.7 nM

Question: What about the IC50 (EGFR (d746-750)) of the same molecule?
Answer: 0.4 nM

Question: And the IC50 [1]?
Answer: 0.7 nM

Question: With `COc1cc2ncnc(-c3cn(C)nc3-c3ccccc3)c2cc1NC(=O)C1CCC1` [Example 347, N-(7-methoxy-4-(1-methyl-3-phenyl-1H-pyrazol-4-yl)quinazolin-6-yl)cyclobutanecarboxamide] as the molecule, how does the IC50 (EGFR L858R) read?
Answer: 2.4 nM

Question: And the IC50 (EGFR (d746-750))?
Answer: 1.2 nM

Question: What about the IC50 [1] of the same molecule?
Answer: 0.6 nM

Question: How did the IC50 (EGFR L858R) turn out when `COc1cc2ncnc(-c3cn(C)nc3-c3ccccc3)c2cc1OC(=O)N1CCOC(C)(C)C1` [Example 80, 7-methoxy-4-(1-methyl-3-phenyl-1H-pyrazol-4-yl)quinazolin-6-yl 2,2-dimethylmorpholine-4-carboxylate] was run?
Answer: 6 nM

Question: What about the IC50 (EGFR (d746-750)) of the same molecule?
Answer: 3.1 nM

Question: What about the IC50 [1] of the same molecule?
Answer: 9.6 nM

— US20250236608A1, “EGFR INHIBITORS” (Blueprint Medicines Corporation, priority 2022, published 2025)
